Measurements from PubChem BioAssay (NCI).
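Values below derive from 48-hour exposures of cells grown in 96-well plates, with endpoints linearly interpolated between the two concentrations bracketing the appropriate inhibition level. TGI is the concentration that stops growth completely.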

Experiments:
Test in all cases: NCI-60 cell line screen, 48 h
BT-549 breast = tested on: BT-549 breast
CAKI-1 renal = tested on: CAKI-1 renal
DU-145 prostate = tested on: DU-145 prostate
HT29 colon = tested on: HT29 colon
IGROV1 ovarian = tested on: IGROV1 ovarian
KM12 colon = tested on: KM12 colon
LOX IMVI melanoma = tested on: LOX IMVI melanoma
M14 melanoma = tested on: M14 melanoma
MDA-MB-231 breast = tested on: MDA-MB-231 breast
NCI/ADR-RES ovarian = tested on: NCI/ADR-RES ovarian
OVCAR-3 ovarian = tested on: OVCAR-3 ovarian
OVCAR-4 ovarian = tested on: OVCAR-4 ovarian
RPMI-8226 leukemia = tested on: RPMI-8226 leukemia
SF-268 CNS = tested on: SF-268 CNS
SK-MEL-2 melanoma = tested on: SK-MEL-2 melanoma
SK-MEL-28 melanoma = tested on: SK-MEL-28 melanoma
SN12C renal = tested on: SN12C renal
UACC-257 melanoma = tested on: UACC-257 melanoma
UO-31 renal = tested on: UO-31 renal
TK-10 renal = tested on: TK-10 renal

Structure (SMILES) | TGI (BT-549 breast) | TGI (CAKI-1 renal) | TGI (DU-145 prostate) | TGI (HT29 colon) | TGI (IGROV1 ovarian) | TGI (KM12 colon) | TGI (LOX IMVI melanoma) | TGI (M14 melanoma) | TGI (MDA-MB-231 breast) | TGI (NCI/ADR-RES ovarian) | TGI (OVCAR-3 ovarian) | TGI (OVCAR-4 ovarian) | TGI (RPMI-8226 leukemia) | TGI (SF-268 CNS) | TGI (SK-MEL-2 melanoma) | TGI (SK-MEL-28 melanoma) | TGI (SN12C renal) | TGI (UACC-257 melanoma) | TGI (UO-31 renal) | TGI (TK-10 renal)
Cc1c(N2C(=O)/C(=C/c3ccc(N(CCC#N)CCC#N)cc3)N=C2c2ccccc2)c(=O)n(-c2ccccc2)n1C | > 100 µM | > 100 µM | > 100 µM | > 100 µM | > 100 µM | > 100 µM | > 100 µM | > 100 µM | > 100 µM | > 100 µM | > 100 µM | > 100 µM | > 100 µM | > 100 µM | > 100 µM | > 100 µM | > 100 µM | > 100 µM | > 100 µM | 
NC1Cc2ccccc2OC1=O (stereo not drawn) | > 100 µM | > 100 µM | > 100 µM | > 100 µM | > 100 µM | > 100 µM |  | > 100 µM | > 100 µM | > 100 µM | > 100 µM |  | > 100 µM | > 100 µM | > 100 µM | > 100 µM | > 100 µM | > 100 µM | > 100 µM | > 100 µM
C(=Nc1ccc(-c2nc3ccccc3[nH]2)cc1)c1ccco1 | > 100 µM | > 100 µM | > 100 µM | > 100 µM | > 100 µM | > 100 µM | > 100 µM | > 100 µM |  | > 100 µM | > 100 µM | > 100 µM | > 100 µM | > 100 µM | > 100 µM | > 100 µM | > 100 µM | > 100 µM | > 100 µM | > 100 µM
CC(C)(C)OC(=O)Cn1ncn(NC(=O)Cc2ccccc2)c1=O | > 10 µM | > 10 µM | > 10 µM | > 10 µM | > 10 µM | > 10 µM | > 10 µM | > 10 µM | > 10 µM | > 10 µM | > 10 µM | > 10 µM |  | > 10 µM |  | > 10 µM | > 10 µM | > 10 µM | > 10 µM | > 10 µM
CC1(C)CCCCCC(C)(CCCO)C1=O (stereo not drawn) | > 100 µM | > 100 µM | > 100 µM | > 100 µM | > 100 µM | > 100 µM | > 100 µM | > 100 µM | > 100 µM | > 100 µM | > 100 µM | > 100 µM | > 100 µM | > 100 µM | > 100 µM | > 100 µM | > 100 µM | > 100 µM | > 100 µM | 
CCC(O)c1ccc(N=Cc2ccccc2O)cc1 (stereo not drawn) | > 100 µM | > 100 µM | > 100 µM | > 100 µM | > 100 µM | > 100 µM | > 100 µM | > 100 µM | > 100 µM | > 100 µM | > 100 µM | > 100 µM | > 100 µM | > 100 µM | > 100 µM | > 100 µM |  |  | > 100 µM | > 100 µM
CCOC(=O)C(C)c1nc2ccc(C(F)(F)F)cc2[nH]c1=O (stereo not drawn) | > 100 µM |  | > 100 µM | > 100 µM |  | > 100 µM | > 100 µM | > 100 µM | > 100 µM | > 100 µM | > 100 µM | > 100 µM | > 100 µM | > 100 µM | > 100 µM | > 100 µM | > 100 µM | > 100 µM | > 100 µM | > 100 µM
Cc1ccc(O)c(C2=CC(c3cccc(Br)c3)SC(N)=N2)c1 (stereo not drawn) | 83.6 µM | > 100 µM | > 100 µM | > 100 µM | 46.5 µM | 82.3 µM | 34.7 µM | 62.9 µM | 64 µM | 71.9 µM | > 100 µM | > 100 µM | 49.8 µM | 88.9 µM | 39.4 µM |  | 40.7 µM | 41.3 µM | 65.3 µM | 46.1 µM
N#CCN(CC#N)C1CC=CCC1N(CC#N)CC#N (stereo not drawn) | > 100 µM | > 100 µM | > 100 µM | > 100 µM | > 100 µM | > 100 µM | > 100 µM | > 100 µM | > 100 µM | > 100 µM | > 100 µM | > 100 µM | > 100 µM | > 100 µM | > 100 µM |  | > 100 µM | > 100 µM | > 100 µM | > 100 µM
O=C(Nc1nnc(-c2c(Cl)c(Cl)c(Cl)c(Cl)c2-c2nc3cc(C(=O)c4ccccc4)ccc3[nH]2)o1)c1ccc(Cl)cc1 | > 100 µM | > 100 µM | > 100 µM | > 100 µM | > 100 µM | > 100 µM | > 100 µM | > 100 µM | > 100 µM | > 100 µM | 54.1 µM | > 100 µM | > 100 µM |  | > 100 µM | > 100 µM | 53 µM | > 100 µM | > 100 µM | > 100 µM
S=C(N1CCN(c2cccc(Cl)c2)CC1)N1CCN(c2cccc(Cl)c2)CC1 | > 100 µM | 83.7 µM | > 100 µM | > 100 µM | > 100 µM | 61.7 µM |  | > 100 µM | 58.8 µM | > 100 µM | > 100 µM | > 100 µM | > 100 µM | > 100 µM | > 100 µM | > 100 µM |  | > 100 µM | 86.1 µM | > 100 µM
CN(C(=O)Cc1cc(Cl)c(Cl)cc1NC(=O)CN)[C@H]1CCCC[C@@H]1N1CCCC1 | > 100 µM | > 100 µM | > 100 µM | 58.7 µM | > 100 µM | > 100 µM | 41.6 µM | 33.5 µM | 71.2 µM | > 100 µM | > 100 µM | > 100 µM | 94 µM | > 100 µM | 35.7 µM |  | > 100 µM | 33.9 µM | > 100 µM | > 100 µM
